Experiment [1] addresses Nonstructural protein 1 (Influenza A virus, UniProt Q194T2). Format: functional, Influenza A virus (A/California/07/2009(H1N1)).
Experiment [2] concerns the target T1, Carboxy-terminal domain RNA polymerase II polypeptide A small phosphatase 1 (Homo sapiens, UniProt Q9GZU7).
T1 sequence (Q9GZU7 whole entry): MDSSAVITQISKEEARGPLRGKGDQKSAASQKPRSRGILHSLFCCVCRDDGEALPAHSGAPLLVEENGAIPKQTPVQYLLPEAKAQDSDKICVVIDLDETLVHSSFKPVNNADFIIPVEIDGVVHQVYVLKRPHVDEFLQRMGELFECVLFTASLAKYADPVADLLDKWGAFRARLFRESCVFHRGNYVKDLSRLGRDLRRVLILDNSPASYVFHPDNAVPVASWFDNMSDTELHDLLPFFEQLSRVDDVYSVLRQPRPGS
As to the kind of experiment: inhibitors of CTDSP1, concentration-response testing, biochemical assay, absorbance-based, actives from ultra-high-throughput screening (AID 540297). Format: functional.

In experiment [3] the target is Genome polyprotein (dengue virus type 2, UniProt P29990). As to the kind of experiment: Dengue-2 NS5 methyltransferase inhibitors, primary screen, biochemical, confirmation dose response (AID 588689). Format: functional.
Chain of Genome polyprotein (P29990 2492-3391 limits assumed): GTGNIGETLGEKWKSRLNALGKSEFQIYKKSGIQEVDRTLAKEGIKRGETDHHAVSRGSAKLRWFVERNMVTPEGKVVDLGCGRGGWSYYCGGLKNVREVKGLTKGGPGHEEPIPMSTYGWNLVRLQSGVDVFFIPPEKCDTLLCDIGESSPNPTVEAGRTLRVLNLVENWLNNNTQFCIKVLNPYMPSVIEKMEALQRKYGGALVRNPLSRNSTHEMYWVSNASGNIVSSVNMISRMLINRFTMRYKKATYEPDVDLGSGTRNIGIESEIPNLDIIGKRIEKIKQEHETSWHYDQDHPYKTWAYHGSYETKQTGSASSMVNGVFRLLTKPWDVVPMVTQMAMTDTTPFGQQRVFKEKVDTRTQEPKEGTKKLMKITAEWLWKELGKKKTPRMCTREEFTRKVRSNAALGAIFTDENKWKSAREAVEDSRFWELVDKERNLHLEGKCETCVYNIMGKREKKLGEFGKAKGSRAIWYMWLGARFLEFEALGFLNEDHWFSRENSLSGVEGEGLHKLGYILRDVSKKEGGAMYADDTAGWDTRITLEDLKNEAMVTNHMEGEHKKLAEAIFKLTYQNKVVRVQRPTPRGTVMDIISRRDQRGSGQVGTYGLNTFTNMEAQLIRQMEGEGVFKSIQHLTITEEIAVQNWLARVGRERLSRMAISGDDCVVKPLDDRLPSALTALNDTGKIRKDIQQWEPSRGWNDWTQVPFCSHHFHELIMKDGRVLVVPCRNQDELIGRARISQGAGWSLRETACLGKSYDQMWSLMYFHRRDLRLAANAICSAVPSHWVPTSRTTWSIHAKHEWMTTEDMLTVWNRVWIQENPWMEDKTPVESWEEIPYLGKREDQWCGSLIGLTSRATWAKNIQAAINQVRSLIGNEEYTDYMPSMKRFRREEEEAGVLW
Experiment [4] addresses FAD-linked sulfhydryl oxidase ALR (Homo sapiens, UniProt P55789). The experiment can be described thus: inhibitors of human ALR sulfhydryl oxidase, dose response, biochemical, H2O2 detection, luminescence, cherry-pick (AID 493248).
Experiment [5] can be described thus: Shn3 3'UTR reporter inhibitors, dose response, cell-based, Clone20 osteoblasts, firefly luciferase, cherry-picked (AID 624132).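 Also: firefly luciferase luminescence from reporter carrying the Shn3 3'UTR in osteoblasts.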 It is filed as functional.
Experiment [6] is described as follows: control 3'UTR Renilla luciferase suppression, dose response, counter-screen for Shn3 inhibitor project, cell-based, Clone20-Shn3RL, cherry-picked (AID 624133). It is filed as functional.
Experiment [7] in a line: HepG2 cell cytotoxicity, dose response, cytotoxicity control for Shn3 inhibitor project, CellTiter-Glo, cherry-picked (AID 624134). Format: functional, cell-based.
Experiment [8] concerns Vero. As to the kind of experiment: cells. The note with it: Chlorocebus sabaeus. Format: functional.
Experiment [9] deals with T2, Heat shock factor protein 1 (Mus musculus, UniProt P38532).
T2 sequence (P38532 whole entry): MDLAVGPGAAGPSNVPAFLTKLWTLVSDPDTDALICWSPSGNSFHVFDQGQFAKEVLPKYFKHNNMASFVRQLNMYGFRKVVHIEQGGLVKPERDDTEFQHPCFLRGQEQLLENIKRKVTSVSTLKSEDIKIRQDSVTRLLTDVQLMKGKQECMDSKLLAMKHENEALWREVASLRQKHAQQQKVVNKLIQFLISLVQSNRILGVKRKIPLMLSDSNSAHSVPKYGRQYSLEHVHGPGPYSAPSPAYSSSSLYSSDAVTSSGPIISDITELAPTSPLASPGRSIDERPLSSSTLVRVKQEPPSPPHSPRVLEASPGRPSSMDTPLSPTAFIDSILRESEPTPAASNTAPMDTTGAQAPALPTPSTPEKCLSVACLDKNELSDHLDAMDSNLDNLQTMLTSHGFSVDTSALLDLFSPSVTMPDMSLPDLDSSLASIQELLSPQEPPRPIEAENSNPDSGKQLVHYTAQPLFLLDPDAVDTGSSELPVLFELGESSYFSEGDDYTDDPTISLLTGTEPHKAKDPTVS
The experiment can be described thus: inhibition of MG132-induced HSE-luciferase signal, confirmation, cell-based, NIH3T3, luminescence, dose retest (AID 2382).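 Also: NIH3T3 fibroblasts with HSF1-driven luciferase reporter stressed by proteasome inhibitor MG132; luminescence from HSF1-driven luciferase expression after 8 hours of MG132 stress.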 Format: functional.

The target of experiment [10] is T3, Protein RecA (Mycobacterium tuberculosis, UniProt P9WHJ3).
T3 sequence (P9WHJ3 whole entry): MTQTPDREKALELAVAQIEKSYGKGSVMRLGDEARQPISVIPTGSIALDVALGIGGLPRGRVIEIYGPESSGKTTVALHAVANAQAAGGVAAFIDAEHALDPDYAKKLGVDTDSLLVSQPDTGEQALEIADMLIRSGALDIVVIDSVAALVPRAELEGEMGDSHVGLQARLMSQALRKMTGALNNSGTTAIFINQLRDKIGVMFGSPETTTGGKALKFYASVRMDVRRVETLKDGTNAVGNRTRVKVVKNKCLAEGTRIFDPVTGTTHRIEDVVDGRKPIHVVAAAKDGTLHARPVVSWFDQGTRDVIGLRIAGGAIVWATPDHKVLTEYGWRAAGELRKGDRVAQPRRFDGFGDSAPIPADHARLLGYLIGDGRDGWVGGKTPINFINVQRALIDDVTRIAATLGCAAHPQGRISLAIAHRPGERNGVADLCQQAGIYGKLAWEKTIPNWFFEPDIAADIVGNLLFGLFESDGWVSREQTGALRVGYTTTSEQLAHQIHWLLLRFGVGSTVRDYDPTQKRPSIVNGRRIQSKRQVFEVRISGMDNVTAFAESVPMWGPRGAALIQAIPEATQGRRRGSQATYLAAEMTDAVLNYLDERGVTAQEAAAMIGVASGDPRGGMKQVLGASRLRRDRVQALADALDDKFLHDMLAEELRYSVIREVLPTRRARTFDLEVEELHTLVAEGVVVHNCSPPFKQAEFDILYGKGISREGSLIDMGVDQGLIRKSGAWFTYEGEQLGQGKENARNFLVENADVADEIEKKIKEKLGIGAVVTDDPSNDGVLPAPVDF
As to the kind of experiment: Fluorescence Cell-Free Homogeneous Dose Retest to Identify Inhibitors of RecA-Intein Splicing Activity. [Related pubchem assays (depositor defined):AID2097, AID2223, AID489010, AID492950]. It is filed as functional.

In experiment [11] the target is T4, Replicative DNA helicase DnaB (Mycobacterium tuberculosis, UniProt P9WMR3).
T4 sequence (P9WMR3 whole entry): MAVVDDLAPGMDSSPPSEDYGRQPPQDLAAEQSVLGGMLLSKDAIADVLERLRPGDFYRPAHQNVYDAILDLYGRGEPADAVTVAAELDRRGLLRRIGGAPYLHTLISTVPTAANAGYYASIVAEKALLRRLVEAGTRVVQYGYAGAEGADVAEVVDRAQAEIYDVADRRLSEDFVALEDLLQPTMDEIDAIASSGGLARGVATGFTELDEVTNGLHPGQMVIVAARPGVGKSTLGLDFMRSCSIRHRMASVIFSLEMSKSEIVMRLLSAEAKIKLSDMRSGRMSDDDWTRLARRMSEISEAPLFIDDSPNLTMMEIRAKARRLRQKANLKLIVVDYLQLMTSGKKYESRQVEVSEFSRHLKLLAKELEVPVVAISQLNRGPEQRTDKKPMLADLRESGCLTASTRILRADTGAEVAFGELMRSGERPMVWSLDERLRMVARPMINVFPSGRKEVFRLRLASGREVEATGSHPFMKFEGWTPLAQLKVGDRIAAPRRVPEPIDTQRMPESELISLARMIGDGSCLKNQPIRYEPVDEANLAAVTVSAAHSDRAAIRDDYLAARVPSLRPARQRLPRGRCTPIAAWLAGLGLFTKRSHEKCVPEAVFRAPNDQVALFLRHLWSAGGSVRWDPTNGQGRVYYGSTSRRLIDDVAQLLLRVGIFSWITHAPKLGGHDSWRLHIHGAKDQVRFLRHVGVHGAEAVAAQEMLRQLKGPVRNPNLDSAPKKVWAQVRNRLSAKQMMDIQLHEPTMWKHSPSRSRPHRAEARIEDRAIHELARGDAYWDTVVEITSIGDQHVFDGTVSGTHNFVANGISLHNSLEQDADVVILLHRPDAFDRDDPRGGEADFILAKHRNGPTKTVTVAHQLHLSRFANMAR
As to the kind of experiment: DnaB intein splicing inhibitors, dose response, biochemical, cell-free fluorescence (AID 449749). Format: functional.

The target in experiment [12] is T5, Rac GTPase-activating protein 1 (Homo sapiens, UniProt Q9H0H5).
T5 sequence (Q9H0H5 whole entry): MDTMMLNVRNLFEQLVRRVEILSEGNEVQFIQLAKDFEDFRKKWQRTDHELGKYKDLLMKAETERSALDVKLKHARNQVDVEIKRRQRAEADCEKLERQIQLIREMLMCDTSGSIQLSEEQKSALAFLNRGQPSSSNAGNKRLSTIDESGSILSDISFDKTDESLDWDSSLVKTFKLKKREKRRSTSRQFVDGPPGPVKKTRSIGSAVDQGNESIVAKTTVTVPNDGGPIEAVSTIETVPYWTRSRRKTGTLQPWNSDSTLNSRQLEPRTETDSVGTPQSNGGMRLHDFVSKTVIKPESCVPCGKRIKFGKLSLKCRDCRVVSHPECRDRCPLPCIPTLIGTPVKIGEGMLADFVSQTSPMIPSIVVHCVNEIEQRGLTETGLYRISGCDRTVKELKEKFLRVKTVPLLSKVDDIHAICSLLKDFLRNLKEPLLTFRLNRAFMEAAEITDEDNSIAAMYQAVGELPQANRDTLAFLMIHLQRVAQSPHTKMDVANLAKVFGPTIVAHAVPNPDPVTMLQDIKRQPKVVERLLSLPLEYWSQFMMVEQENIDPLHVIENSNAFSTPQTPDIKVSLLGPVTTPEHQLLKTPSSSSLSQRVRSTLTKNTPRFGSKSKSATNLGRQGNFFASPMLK
As to the kind of experiment: MgcRacGAP GTPase-activating activity inhibitors, confirmation, biochemical, ADP Hunter fluorescence, primary and confirmatory (AID 624330). Format: functional.

Experiment [13] can be described thus: growth suppression of PTEN-null colon cells, dose response, cell-based, HCT116 PTEN knockout (AID 1047).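 Also: HCT116 colon tumor cells with PTEN knocked out; cells exposed to compound for 60 hours before readout; potency for loss of cell viability measured by luminescence.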 Format: functional.

From ChEMBL document CHEMBL1201862, “PubChem BioAssay data set” (2004) come the findings set out here.

Active and inactive are the calls of the source.

Chain of FAD-linked sulfhydryl oxidase ALR (P55789 whole entry): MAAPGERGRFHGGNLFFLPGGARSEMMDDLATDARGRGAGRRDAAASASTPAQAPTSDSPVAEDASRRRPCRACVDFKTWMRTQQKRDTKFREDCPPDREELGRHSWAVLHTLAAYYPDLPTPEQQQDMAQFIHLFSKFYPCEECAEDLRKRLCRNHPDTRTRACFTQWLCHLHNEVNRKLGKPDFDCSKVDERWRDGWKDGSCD
Chain of Nonstructural protein 1 (Q194T2 whole entry, the tested form may be a part): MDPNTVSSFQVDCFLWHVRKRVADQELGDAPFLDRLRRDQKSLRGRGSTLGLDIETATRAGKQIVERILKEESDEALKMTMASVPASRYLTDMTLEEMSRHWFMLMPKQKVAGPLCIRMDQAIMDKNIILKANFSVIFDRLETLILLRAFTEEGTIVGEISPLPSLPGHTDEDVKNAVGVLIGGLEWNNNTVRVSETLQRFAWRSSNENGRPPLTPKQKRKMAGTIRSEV

For the molecule `O=C(N/N=C/C1C(=O)NC(=S)N(c2ccccc2)C1=O)c1cc(Br)c(O)c(Br)c1` (configuration not stated), in experiment [1], the IC50 is 10.5 µM (active).
As for `CN(C)C(=O)c1ccc(NC(=O)c2cc(-c3ccco3)nc3ccccc23)cc1`, in experiment [2], the half-maximal inhibitory concentration (IC50) was 7.55 µM (active).
Regarding `CCOC(=O)C1(C)C(N=Nc2cccc(Cl)c2)=C(O)C(=O)N1c1ccccc1` (configuration not stated), the IC50 in experiment [3] is 18.4 µM (active).
As to `Cc1cc2c(s1)Nc1ccccc1N=C2N1CCN(C)CC1` [OLANZAPINE], the AC50 in [4] is 369 nM (active).
For `Cc1ccc(C)c(N2CCN(C(=O)CCS(=O)(=O)c3ccc4c(c3)NC(=O)C(C)S4)CC2)c1` (configuration not stated), the AC50 in [5] is 4.47 µM (active); in experiment [6], 8.6 µM (active); in experiment [7], 4.58 µM (active).
For `Cc1noc(-c2ccc(Cl)cc2)c1C(=O)ON=C(N)c1ccc(C(C)(C)C)cc1`, the CC50 in experiment [8] was 18.8 µM (active).
As to `Cc1c(NS(=O)(=O)c2cc(C(=O)NCCN(C)C)ccc2Cl)c(=O)n(-c2ccccc2)n1C`, in experiment [9], the EC50 was > 195 µM (not active). Also, the IC50 in experiment [2] was 9.93 µM (active).
On to `Oc1ccc2ccccc2c1N=Nc1ccc(F)cc1`, for which the IC50 in [1] is 16.2 µM (active).
Take `NC(=NO)c1ccc(NC(=O)c2ccc(Br)o2)cc1`: in experiment [4], the AC50 was 160 nM (active).
For `COc1ccc(CSC2=NCCN2)cc1Br`, the AC50 in experiment [4] was 7 nM (active).
As to `Cc1nn(Cc2cccc(C(=O)NC3CCCCC3)c2)c(C)c1Cl`, the CC50 in experiment [8] is > 25 µM (active).
Turning to `Cc1ccn(CC(=O)N/N=C/c2cc([N+](=O)[O-])ccc2O)n1`, in [1], the IC50 was 7.07 µM (active).
Regarding `COc1ccccc1/C=C1/C(=O)N(c2ccccc2)N=C1C`, the EC50 in experiment [10] is 35.6 nM (active). For the same molecule, in [11], the AC50 was 96.6 µM (active). Also, the IC50 in experiment [12] was 119 µM (active); in experiment [3] it was 90.2 µM (active).
Regarding `C/C=C\C=C\C(=O)N1CC2(CC(c3cccc(NC(=O)CC)c3)=NO2)C[C@H]1C(N)=O` (some centres not stated), the IC50 in experiment [2] was 7.57 µM (active).
Regarding `COc1cc(C(C2C(=O)CC(C)(C)CC2=O)C2C(=O)CC(C)(C)CC2=O)cc(OC)c1OC`, in experiment [3], the half-inhibitory concentration (IC50) was 87.7 µM (active).
Turning to `CC(CNC(=O)c1cc(COc2ccc3ncccc3c2)on1)c1ccccc1` (configuration not stated), the results for the AC50 in experiment [5], in experiment [6] and in [7] were 3.73 µM (active), 11.2 µM (active) and 48.9 µM (active), respectively.
In the case of `CCc1ccc(-c2csc3[n+]2CCN3C(C)=O)cc1`, the AC50 in experiment [4] is 3620 nM (active).
With `N#C/C(=C\c1ccccc1[N+](=O)[O-])c1nc(C2CC2)cs1`, the IC50 in experiment [1] is 75.1 µM (active).
Regarding `O=C(CCC1N=C2c3ccccc3N=C(SCC(=O)NCc3ccco3)N2C1=O)NCc1ccco1` (configuration not stated), the IC50 in experiment [2] is 5.31 µM (active).
With `Cc1cc(NNC(=O)c2cccc(C(F)(F)F)c2)nc2c1c(C)nn2C`, the AC50 in experiment [5] is 2.43 µM (active); in experiment [6] it was 3.61 µM (active); in experiment [7], 57 µM (active).
The like results for `CC(Sc1nc2ccccc2c(=O)n1C)C(=O)Nc1ccc2c(c1)OCCO2` (configuration not stated) were, in that order, 1.94 µM (active), 9.21 µM (active) and > 70 µM (inactive).
Regarding `CC1CC/C(=N/Nc2ccccc2)C(=O)N1` (configuration not stated), the half-maximal activity concentration (AC50) in experiment [4] was 623 nM (active).
Turning to `CCN(CC)CCNc1nc(-c2ccc(OC)cc2)c(-c2ccc(OC)cc2)s1`, the CC50 in experiment [8] was > 25 µM (active).
Take `N#CCC(=O)Nc1sc2c(c1C(N)=O)CCCC2`: the AC50 in experiment [4] was 14400 nM (active).
Regarding `CC(=Nc1ccccc1)C1=C(O)C(Cc2ccc(O)cc2)NC1=O` (configuration not stated), the CC50 in [8] was 0.98 µM (active).
As for `CCN1CCN(c2cc(C)c3cc(NC(=O)c4ccc5c(c4)OCO5)ccc3n2)CC1`, the CC50 in experiment [8] was > 25 µM (active). Moreover, the EC50 in experiment [13] was 25.1 µM (active).
For `Nc1ccc(NC(=O)c2ccco2)c(Cl)c1`, in experiment [4], the AC50 is 1720 nM (active).
As to `CS(=O)(=O)C1=NN2C(=N)/C(=C\c3ccc(OCCOc4ccccc4)cc3)C(=O)N=C2S1`, the IC50 in experiment [2] was 6.76 µM (active).
Consider `O=C1CC(NNc2ccccc2)C(=O)N1c1cccc(Cl)c1` (configuration not stated), for which, in experiment [4], the AC50 is 319 nM (active).
